# What was measured:
# [1] = tested on: human peripheral blood mononuclear cells; assay: Induction of IL-2 production of PHA-M-stimulated human peripheral blood mononuclear cells (Example 2); assay type: cell-based; conditions: PHA-M 5 μg/ml, 3 days, ELISA (FIG. 3)
# Experimental: Human peripheral blood mononuclear cells were introduced into a human complete medium (i.e., RPMI-1640 supplemented with 10% heat-inactivated FBS, 100 U/ml penicillin, and 100 μg/ml streptomycin) to prepare a cell suspension (1×10^6 cells/ml). Phytohemagglutinin M (PHA-M) was added thereto to the final concentration of 5 μg/ml, and Compound (I) or an EGFR tyrosine kinase inhibitor (AZD9291) was further added thereto to each final concentration. This culture solution was seeded in a 96-well plate at 200 μl/well and then cultured in an incubator at 37° C. in the presence of 5% CO2 for 3 days. The culture supernatant was recovered, and the concentration of IL-2 therein was measured via ELISA using the anti-hIL-2 antibody.
# mouse spleen cells [2] = assay: Induction of IL-2 production of mouse spleen cells stimulated with anti-CD3 antibody and anti-CD28 antibody (Example 1); assay type: cell-based
# Experimental: The mouse spleen was extracted, grinded with glass slides with frosted areas, and then subjected to hemolysis, so as to obtain spleen cells. The resulting spleen cells were introduced into a complete medium (i.e., RPMI-1640 supplemented with 10% heat-inactivated FBS, 100 U/ml penicillin, 100 μg/ml streptomycin, and 55 μM 2-mercaptoethanol) to a cell density of 2×10^6 cells/ml, the anti-CD3 antibody and the anti-CD28 antibody were added thereto to the final concentrations of 3 μg/ml and 0.5 μg/ml, respectively, and Compound (I) was further added thereto to each final concentration. The culture solution was seeded in a 96-well plate at 200 μl/well and then cultured in an incubator at 37° C. in the presence of 5% CO2 for 2 days. The culture supernatant was recovered, and the concentration of IL-2 contained therein was measured via ELISA using anti-mIL-2 antibody.
# Also, culture was conducted in the same manner with the addition of the anti-CD3 antibody at a variable final concentration, the anti-CD28 antibody at the final concentration of 0.5 μg/ml, and Compound (I) at the final concentration of 0.0 μM or 0.1 μM, and the IL-2 concentration in the culture supernatant was measured.
# B16F10 [3] = assay: Pulmonary metastatic nodules after intravenous injection of mouse melanoma cell line, in vivo model (Example 8); conditions: oral 12.5 mg/kg or 50 mg/kg, 14 days after implantation, compared with control group (FIG. 10)
# Experimental: A cell suspension of the mouse melanoma cell line B16F10 was prepared with the use of PBS(-), and the cell suspension was injected intravenously into the mouse caudal portion at 5×10^5 cells/mouse. Compound (I) was administered orally to the mouse model at 12.5 mg/kg or 50 mg/kg on the previous day of B16F10 implantation. The number of pulmonary metastatic nodules was evaluated 14 days after implantation (i.e., 15 days after drug administration). […] On the basis of the results above and the results of Reference Example 1 such that the tumor growth inhibitory effects were not observed in the in vitro model, it was deduced that the decreased number of pulmonary metastatic nodules was achieved by the immunomodulation activity of Compound (I).
# B16F10 [4] = assay: In vitro growth of mouse melanoma cell line B16F10, CellTiter-Glo2.0 (Reference Example 1); assay type: cell-based; conditions: B16F10, 3 days culture
# Experimental: The mouse melanoma cell lines B16F10 and K1735M2 and the mouse colon cancer cell line MC38 were seeded in a 96-well plate at 3×10^3 cells/well. Compound (I) or the EGFR tyrosine kinase inhibitor (i.e., Erlotinib, Afatinib, AZD9291, or Co1686 (Rociletinib)) that had been diluted to the given concentration was added 24 hours later. Thereafter, culture was conducted for 3 days, and the number of cells was determined using CellTiter-Glo2.0 (Promega, G9243).
# colon26 = assay: Analysis of immunocytes in spleen cells in mouse model subcutaneously implanted with colon cancer cell line (Example 6); assay type: in vivo; conditions: Compound (I) 50 mg/kg and/or anti-PD-1 antibody 100 μg/mouse
# Experimental: A cell suspension of the mouse colon cancer cell line (colon26) was prepared with the use of PBS(-) and 50% Matrigel, and the cell suspension was implanted into the syngeneic BALB/c mice via subcutaneous injection at 2×10^3 cells/mouse. The mice were divided into groups based on their body weights 1 day after implantation, and Compound (I) was administered thereto at 50 mg/kg and/or the anti-PD-1 antibody was administered thereto at 100 μg/mouse. A control group to which neither Compound (I) nor the anti-PD-1 antibody had been administered was also prepared. The spleen cells were sampled 21 days after implantation and analyzed via flow cytometry with the use of antibodies each reacting with a relevant immunocyte surface marker.
# EGFR tyrosine kinase = EGFR tyrosine kinase (Homo sapiens, UniProt P00533); conditions: known from WO 2013/125709; cited from earlier work
# mouse spleen cells [5] = assay: Excitation of T cell growth, CFSE flow cytometry of CD4- and CD8-positive spleen cells (Example 4); assay type: cell-based; conditions: anti-CD3 1 μg/ml and anti-CD28 1 μg/ml, 3 days; comparators at 0.1 μM (FIG. 5)
# Experimental: The mouse spleen was extracted, grinded with glass slides with frosted areas, and then subjected to hemolysis, so as to obtain spleen cells. The spleen cells were suspended in 5 ml of a staining buffer (0.5% BSA, 2 mM EDTA, PBS(-)), and the cells were stained with 5 μM CFSE (5-carboxyfluorescein succinimidyl ester). Thereafter, the stained cells were washed with an ice-cooled complete medium (RPMI-1640). The CFSE-stained spleen cells were introduced into a complete medium (i.e., RPMI-1640 supplemented with 10% heat-inactivated FBS, 100 U/ml penicillin, 100 μg/ml streptomycin, and 55 μM 2-mercaptoethanol) to prepare a cell suspension (1×10^6 cells/ml), the anti-CD3 antibody and the anti-CD28 antibody were added at 1 μg/ml and 1 μg/ml, respectively, and Compound (I) adjusted to various concentrations or the EGFR tyrosine kinase inhibitor (i.e., AZD09291, Erlotinib, Co1686 (Rociletinib), Ibrutinib, Sunitinib, or Dasatinib) was added at 0.1 μM. […] These culture solutions were seeded in a 96-well plate at 200 μl/well and then cultured in an incubator at 37° C. in the presence of 5% CO2 for 3 days. The cells were recovered and stained with the anti-CD4 antibody and the anti-CD8 antibody. The amounts of CFSE in CD4- and CD8-positive cells were analyzed via flow cytometry.
# Once CFSE is incorporated into a cell, the amount thereof is kept constant in the cell. Since the amount of CFSE per cell decreases by half upon cell division, according to flow cytometric analysis, the intensity of CFSE staining is attenuated and is shifted toward left (i.e., lower level) in the chart, as cell division proceeds. […] In the case of the samples to which other types of EGFR tyrosine kinase inhibitors had been added, in contrast, no such activity for enhancing the cell growth was observed.
# [6] = 21 days after implantation (FIG. 7)
# [7] = 21 days after implantation, compared with control group (FIG. 8)
# Sequence of EGFR tyrosine kinase (P00533 25-1210): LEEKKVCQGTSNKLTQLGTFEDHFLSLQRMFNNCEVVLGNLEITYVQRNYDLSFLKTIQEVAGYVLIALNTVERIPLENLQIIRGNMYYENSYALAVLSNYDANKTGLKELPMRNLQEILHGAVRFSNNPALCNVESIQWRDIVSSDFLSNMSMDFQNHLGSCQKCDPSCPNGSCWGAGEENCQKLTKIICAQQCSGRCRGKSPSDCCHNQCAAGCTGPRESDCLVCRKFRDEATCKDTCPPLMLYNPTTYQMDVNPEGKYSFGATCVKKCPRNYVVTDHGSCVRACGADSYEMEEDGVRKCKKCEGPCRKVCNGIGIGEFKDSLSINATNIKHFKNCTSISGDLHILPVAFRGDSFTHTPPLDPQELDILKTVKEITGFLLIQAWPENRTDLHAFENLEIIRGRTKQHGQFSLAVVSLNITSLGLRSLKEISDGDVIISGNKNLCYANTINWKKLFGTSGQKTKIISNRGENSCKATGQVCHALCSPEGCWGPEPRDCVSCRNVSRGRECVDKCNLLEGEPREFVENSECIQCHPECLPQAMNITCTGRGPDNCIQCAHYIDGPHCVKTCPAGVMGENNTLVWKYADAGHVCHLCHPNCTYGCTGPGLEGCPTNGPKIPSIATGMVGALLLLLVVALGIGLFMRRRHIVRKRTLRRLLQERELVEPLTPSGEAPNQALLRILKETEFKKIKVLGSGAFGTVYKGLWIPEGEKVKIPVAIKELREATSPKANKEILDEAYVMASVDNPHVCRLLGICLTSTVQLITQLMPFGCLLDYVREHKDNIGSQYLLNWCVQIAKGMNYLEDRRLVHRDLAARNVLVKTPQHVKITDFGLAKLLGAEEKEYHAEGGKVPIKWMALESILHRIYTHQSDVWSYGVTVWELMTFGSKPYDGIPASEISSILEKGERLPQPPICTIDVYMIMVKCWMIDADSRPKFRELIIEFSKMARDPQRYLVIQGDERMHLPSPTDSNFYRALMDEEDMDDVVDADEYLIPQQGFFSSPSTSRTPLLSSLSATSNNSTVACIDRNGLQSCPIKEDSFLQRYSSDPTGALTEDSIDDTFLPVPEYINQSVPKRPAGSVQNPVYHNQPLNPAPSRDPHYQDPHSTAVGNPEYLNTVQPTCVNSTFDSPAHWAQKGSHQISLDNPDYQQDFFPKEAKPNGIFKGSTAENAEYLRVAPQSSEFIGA
compound,measurement,setting,value
"C=CC(=O)N[C@H]1CCc2c(-c3cnc4ccccc4c3)c3c(N)ncnc3n2C1 [Compound (I), (S)—N-(4-amino-5-(quinolin-3-yl)-6,7,8,9-tetrahydropyrimido[5,4-b]indolizin-8-yl)acrylamide]",concentration of IL-2 produced by human peripheral blood mononuclear cells in the culture supernatant,[1],induced IL-2 production
same,concentration of IL-2 produced by mouse spleen cells in the culture supernatant,"mouse spleen cells [2]; anti-CD3 antibody 3 μg/ml and anti-CD28 antibody 0.5 μg/ml constant, Compound (I) variable, 2 days, ELISA (FIG. 1)",increased as the amount of Compound (I) added increased
same,concentration of IL-2 produced by mouse spleen cells in the culture supernatant,"mouse spleen cells [2]; anti-CD3 antibody variable, anti-CD28 antibody 0.5 μg/ml, Compound (I) 0.1 μM vs 0.0 μM (FIG. 2)",IL-2 production was induced upon stimulation with the anti-CD3 antibody
same,number of pulmonary metastatic nodules,B16F10 [3],decreased in a dose-dependent manner
same,suppression of cell growth (number of cells),B16F10 [4],did not suppress the growth of any cells
same,relative number of CD4-positive and CD69-positive cells in spleen cells,colon26; [6],greater than those in the control group
same,"relative number of CD4-positive, CD44-positive, and CD62L-negative cells in spleen cells",colon26; [6],greater than those in the control group
same,CD44 expression level in CD4-positive cells (MFI),colon26; [7],increased
same,CD62L expression level in CD4-positive cells (MFI),colon26; [7],decreased
same,inhibition of EGFR tyrosine kinase,EGFR tyrosine kinase,inhibit EGFR tyrosine kinase with high selectivity
same,amount of CFSE per CD4-positive cell (cell growth),mouse spleen cells [5],decreases
same,amount of CFSE per CD8-positive cell (cell growth),mouse spleen cells [5],decreases

# — patent US20170202838A1, “IMMUNOMODULATOR” (TAIHO PHARMACEUTICAL CO., LTD., priority 2015, published 2017)
